The series can be described thus: gradient 5% acetonitrile 3 min, to 50% in 2 min, to 85% in 15 min, held 3 min, 100 µL/min. Conditions: column: Zorbax Extend-C18 2.1 x 50 mm; eluents: water / acetonitrile, 0.1% formic acid. The procedure, abridged:
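Data were gathered over 3 months by HPLC coupled to a quadrupole time-of-flight mass spectrometer, operated in positive and negative ionization mode. Mixtures of ~100 pure standards ran on a Zorbax Extend-C18 column (2.1 × 50 mm, 1.8 μm) at 100 μL/min, with water and acetonitrile each containing 0.1% formic acid and dead and dwell volumes of 40 μL and 900 μL. Retention time was read from adduct peaks picked by computer and checked manually.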
The compound `CCOc1ccc(CN2C[C@@H]3C(=O)N(CCCN4CCCC4=O)C(=O)[C@@H]3C2)cc1` came in with an RP-LC retention time of 610 s.

In turn, `Cc1ccc(NC(=O)Cn2nc3nc(N4CCCC(C)C4)ccn3c2=O)cc1C` (stereo not given) displayed an RP-LC retention time of 826 s.

For the compound `O=C(Nc1ccc(N2CCN(c3ccccc3)C2=O)nc1)c1cc(F)cc(F)c1`, the RP-LC retention time was 1020 s.

Regarding `Cc1ccc2nc(-c3c(F)cccc3Cl)c(Nc3ccc4c(c3)OCCO4)n2c1`, the RP-LC retention time came to 692 s.

Compound `O=C(NCc1ccccc1Cl)C1CCN(c2nnc(-c3ccccc3)o2)CC1` gave an RP-LC retention time of 847 s.

`Cc1cc(C)c(NC(=O)COc2cccc3c(=O)n(C)ccc23)c(C)c1` displayed an RP-LC retention time of 805 s.

As to `O=C(Nc1cccc(C(F)(F)F)c1)N1CCCC(Cn2cnc3cccnc32)C1` (stereo not given), the RP-LC retention time is 751 s.

In turn, `Cc1ccc(NC(=O)Cn2cnc3c(sc4nc(-c5ccccc5)ccc43)c2=O)c(F)c1` gave an RP-LC retention time of 982 s.

`CCCn1c(=O)c(C)nc2cc(-c3noc(-c4cccc(F)c4)n3)ccc21` registered an RP-LC retention time of 1210 s.

In turn, `COc1ccc(NC(=O)N2CCCN(C3CCN(CC4CC4)C3=O)CC2)cc1Cl` (stereo not given) gave an RP-LC retention time of 569 s.

For `COc1ccc(NC(=O)N2CCN(C3=CC4=NC(C)CN4C=N3)CC2)c(C)c1` (stereo not given), the RP-LC retention time was 649 s.

`Cc1ccc(C)c(Cn2nc3ccc(S(=O)(=O)N4CCC(C)CC4)cn3c2=O)c1`: the RP-LC retention time was 1130 s.

`O=C(C1=Cc2ccccc2OC=C1)N1CCc2ccccc2C1` returned an RP-LC retention time of 1090 s.

`CCN(CC)CCCCN1c2ccccc2Oc2ccc(Cl)cc21`: the RP-LC retention time is 843 s.

In turn, `Cn1ncc2c3ccccc3n(CC(=O)NCCCN3CCOCC3)c2c1=O` registered an RP-LC retention time of 582 s.

In the case of `CCn1c(CC2C(=O)Nc3ccccc32)nc2ccccc2c1=O` (stereo not given), the RP-LC retention time is 730 s.

Turning to `COCCNC(=O)Cc1c(C)n(C)c2nc(-c3ccccc3)nn2c1=O`, the RP-LC retention time worked out at 633 s.

In turn, `COc1ccc(-c2nc(C3CC(=O)N(c4ccc(F)cc4)C3)no2)cc1OC` (stereo not given) returned an RP-LC retention time of 884 s.

In turn, `CCOC(=O)c1c(C)[nH]c(C)c1S(=O)(=O)N1CCC(C(=O)Nc2ccc3c(c2)OCO3)CC1` registered an RP-LC retention time of 774 s.

The compound `CN1c2cc(C(=O)NC3CCCC3)ccc2C(=O)N2CCCCC21` (stereo not given) came in with an RP-LC retention time of 767 s.

On to `Cc1cc(-c2nnc(C3CC3)o2)c(C)n1CC(=O)NCc1ccc(F)cc1Cl`, for which the RP-LC retention time was 840 s.

The compound `CC(C)(C)C(=O)N1CCCC(c2nc(CCNC(=O)C3CC3)cs2)C1` (stereo not given) registered an RP-LC retention time of 710 s.

Consider `CC(C(=O)NCCc1ccco1)n1c(=O)c(C(F)(F)F)nc2ccccc21` (stereo not given), for which the RP-LC retention time worked out at 698 s.

Consider `CCc1noc(NC(C)=O)c1-c1ccc(C)c(S(=O)(=O)Nc2ccc(C)cc2Br)c1`, for which the RP-LC retention time stood at 919 s.

Compound `O=C1CC(C(F)(F)F)c2c(c(C(=O)O)cn2-c2ccc(Cl)cc2)N1` (stereo not given) had an RP-LC retention time of 786 s.

`CC(C)c1nc2cccnc2n1CCN1CCN(C(=O)Nc2ccc(F)cc2F)CC1` displayed an RP-LC retention time of 589 s.

`O=C(CNC(=O)c1cc(F)cc(F)c1)Nc1nc2ccccc2[nH]1` displayed an RP-LC retention time of 642 s.

As to `COc1ccc(NC(=O)c2nnc(CSCC(=O)N3CCN(c4ccccn4)CC3)s2)cc1`, the RP-LC retention time turned out to be 629 s.

`COC(=O)CNC(=O)Cc1c(C)nn(-c2nc(-c3ccc(Cl)cc3)cs2)c1C` registered an RP-LC retention time of 1010 s.

In the case of `Cc1ccc(CNC(=O)c2cccc(-c3cnc(N4CCCC4)nc3)c2)o1`, the RP-LC retention time amounted to 817 s.

`Cc1ccc(-c2nnc(Cc3nc(-c4ccc(Cl)cc4)no3)o2)cc1C` displayed an RP-LC retention time of 1220 s.

For the compound `Cc1cccc(NC(=O)CN2C(=O)CCc3cc(S(=O)(=O)N4CCCCC4C)ccc32)c1` (stereo not given), the RP-LC retention time was 848 s.

In the case of `CCCc1ccc(S(=O)(=O)N2CCc3c(c(-c4nnc(-c5ccccc5F)o4)nn3C)C2)cc1`, the RP-LC retention time was found to be 1070 s.

`CN1CCCC1c1nc(C2CN(S(=O)(=O)c3ccc(C#N)cc3)C2)no1` (stereo not given) displayed an RP-LC retention time of 602 s.

`CCCn1ccc2sc(C)c(C(=O)N(CC)Cc3ccccc3)c2c1=O` registered an RP-LC retention time of 884 s.

`O=C(NC1CCCCCCC1)C1CCCN(c2cn[nH]c(=O)c2)C1` (stereo not given) displayed an RP-LC retention time of 719 s.

In turn, `Cn1cnc2cc(OC(=O)c3c(F)cccc3F)ccc21` showed an RP-LC retention time of 590 s.

`CCCn1c(CN2CCCC2)nc2cc(NC(=O)C(C)C)ccc21` registered an RP-LC retention time of 595 s.

Take `COc1ccccc1-c1nc(C2CCN(C(=O)c3cccc4[nH]ccc34)CC2)no1`: the RP-LC retention time came out at 652 s.

Compound `CCOC(=O)c1[nH]c(C)c(CN(Cc2ccccc2)C(=O)c2ccco2)c1C` came in with an RP-LC retention time of 946 s.

Compound `CCOc1ccc(NC(=O)Nc2nccn(-c3ccccc3OC)c2=O)cc1` showed an RP-LC retention time of 935 s.

`CN1C(=O)[C@H]2CN(Cc3ccccc3C#N)C[C@H]2C1=O` registered an RP-LC retention time of 650 s.

Turning to `Cc1ccc(NC(=O)N2CCCC2c2c(C)noc2C)c(Cl)c1` (stereo not given), the RP-LC retention time was 872 s.

Regarding `CCn1cc(-c2ccc(F)cc2)cc1C(=O)NCC1CCCO1` (stereo not given), the RP-LC retention time is 909 s.

For `COc1ccc(OC)c(S(=O)(=O)N2CCc3nc(-c4ccc(Cl)cc4)ncc3C2)c1`, the RP-LC retention time is 1160 s.

`CC12CC(c3ccccc3O1)C(C(=O)N1CCCCC1)C(=O)N2` (stereo not given) showed an RP-LC retention time of 726 s.

Consider `CCOC(=O)c1ccc(NC(=O)COc2cc(C)nc(N3CCCC3)n2)cc1`, for which the RP-LC retention time is 591 s.

Compound `CC(C)CNC(=O)NC1CCN(c2nc3cccnc3n(Cc3ccccc3)c2=O)CC1` yielded an RP-LC retention time of 964 s.

Turning to `O=c1n(Cc2cccc(Br)c2)nc2c(S(=O)(=O)N3CCCCCC3)cccn12`, the RP-LC retention time worked out at 1010 s.

`Cc1ccc(N2CCC(NC(=O)Nc3ccc(C)c(C)c3)C2=O)cc1` (stereo not given) gave an RP-LC retention time of 902 s.

`Cc1ccc(CN2CCC3(CC2)CC(C)(O)CCO3)nc1` (stereo not given) showed an RP-LC retention time of 556 s.

For the compound `O=C(NCCc1csc(-c2cccs2)n1)C1CCN(C(=O)Cc2cccc(F)c2)CC1`, the RP-LC retention time turned out to be 797 s.

Compound `O=C(Cc1cccn1-c1ccc(F)cc1)NCc1ccc(F)cc1` displayed an RP-LC retention time of 922 s.

Take `Cc1nccn1C1CN(C(=O)CCCc2c[nH]c3ccccc23)C1`: the RP-LC retention time worked out at 611 s.

For the compound `Cc1cccc(-c2noc(Cc3nc(-c4ccc(F)cc4)cs3)n2)c1`, the RP-LC retention time stood at 1260 s.

As to `CN1C(=O)C(CC(=O)Nc2cccnc2)=C2CCCCC21` (stereo not given), the RP-LC retention time is 564 s.

`O=C(NCCc1cnc[nH]1)c1ccc2nc(CCc3ccccc3)oc2c1`: the RP-LC retention time amounted to 641 s.

`O=C(Cn1c(CO)nc2ccccc21)N1CCCC1` registered an RP-LC retention time of 565 s.

On to `Cc1ccc(-c2cc3c(N4CCCC(C(=O)NC5CC5)C4)nccn3n2)c(C)c1` (stereo not given), for which the RP-LC retention time came out at 782 s.

Consider `COc1ccc(CNC(=O)c2ccc3c(c2)CC(=O)N3C)cc1`, for which the RP-LC retention time is 696 s.

The values are drawn from the METLIN SMRT retention time set (Domingo-Almenara et al. 2019).
